Test results reported in patent US10072006B2 (MUTABILIS, priority 2015, dated 2018).
pIC50: −log10 of the molar value. Counter-ions that a name gives are not always drawn. Like-named read-outs stand apart in the source and are kept apart here.

Assays:
[1] = tested on: E. cloacae P99 (Derepressed ampC); experiment: MIC of compounds and synergy with ceftazidime (broth microdilution); type: cell-based; conditions: strain P99 (E. cloacae); for MIC, combination of CAZ and compounds of the invention: MIC of ceftazidime with compound fixed at 4 μg/mL; for MIC: Enterobacter cloacae, 18 h, read-out: MIC compounds of the invention alone
Protocol: (§1) Briefly, compounds alone according to the invention were prepared in DMSO and spotted (2 μL each) on sterile polystyrene plates (Corning, 3788). […] Microplates were incubated for 16-20 h at 35° C. in ambient air. The MIC of the compounds was defined as the lowest concentration of said compounds that prevented bacterial growth as read by visual inspection.

[2] = tested on: E. coli 131119 (TEM-1, OXA-48); experiment: as above; type: cell-based; conditions: for MIC: Escherichia coli
Protocol: as §1

E. coli RGN238 (OXA-1) = experiment: as above; type: cell-based; conditions: for MIC: Escherichia coli
Protocol: as §1

[3] = tested on: K. pneumoniae 6299 (TEM-1, SHV-11, OXA-163); experiment: as above; type: cell-based; conditions: for MIC, combination of CAZ and compounds of the invention: MIC of ceftazidime with compound fixed at 4 μg/mL; for MIC: Klebsiella pneumoniae
Protocol: as §1

[4] = tested on: K. pneumoniae BAA-1898 (TEM-1, SHV-11, SHV-12, KPC-2); experiment: as above; type: cell-based; conditions: for MIC, combination of CAZ and compounds of the invention: MIC of ceftazidime with compound fixed at 4 μg/mL; for MIC: Klebsiella pneumoniae
Protocol: as §1

[5] = tested on: P. aeruginosa CIP105250 (OXA-15); experiment: as above; type: cell-based; conditions: for MIC, combination of CAZ and compounds of the invention: MIC of ceftazidime with compound fixed at 4 μg/mL; for MIC: Pseudomonas aeruginosa
Protocol: as §1

[6] = tested on: P. aeruginosa CIP107051 (TEM-24); experiment: as above; type: cell-based; conditions: for MIC, combination of CAZ and compounds of the invention: MIC of ceftazidime with compound fixed at 4 μg/mL; for MIC: Pseudomonas aeruginosa
Protocol: as §1

[7] = tested on: E. coli 190317 (TEM-1, SHV-12, CTX-M-15, OXA-1); experiment: microbe, parasite or virus in culture; type: cell-based
Protocol: as §1

[8] = tested on: E. coli UFR74 (SHV-1, DHA-1); experiment: MIC of compounds and synergy with ceftazidime (broth microdilution); type: cell-based; conditions: for MIC: Escherichia coli
Protocol: as §1

[9] = tested on: K. pneumoniae UFR77 (CMY-2); experiment: as above; type: cell-based; conditions: for MIC: Klebsiella pneumoniae
Protocol: as §1

[10] = tested on: P. aeruginosa UFR35 (OXA-23); experiment: as above; type: cell-based; conditions: for MIC: Pseudomonas aeruginosa
Protocol: as §1

[11] = tested on: P. aeruginosa UFR48 (VIM-2); experiment: as above; type: cell-based; conditions: for MIC: Pseudomonas aeruginosa
Protocol: as §1

[12] = tested on: P. aeruginosa UFR90 (Derepressed ampC, OprD-); experiment: as above; type: cell-based; conditions: Pseudomonas aeruginosa, read-out: MIC of CAZ
Protocol: as §1

[13] = tested on: P. aeruginosa UFR92 (Derepressed ampC, OprD-); experiment: as above; type: cell-based; conditions: Pseudomonas aeruginosa, read-out: MIC of CAZ
Protocol: as §1

TEM-1 = target: T1, TEM-1 (Escherichia coli, UniProt P62593); experiment: β-lactamase inhibitory activity, determination of IC50 (nitrocefin hydrolysis); type: biochemical; conditions: class (A), 30 min pre-incubation
T1 construct: made in house; host or cells: E. coli

[14] = tested on: C. murliniae 210102 (VIM-4); experiment: MIC of compounds and synergy with ceftazidime (broth microdilution); type: cell-based; conditions: strain 210102 (C. murliniae)
Protocol: as §1

[15] = tested on: E. cloacae UFR38 (CTX-M-15, NDM-1); experiment: as above; type: cell-based; conditions: strain UFR38 (E. cloacae)
Protocol: as §1

[16] = tested on: E. coli UFR18 (CTX-M-15, OXA-204); experiment: as above; type: cell-based; conditions: strain UFR18 (E. coli)
Protocol: as §1

[17] = tested on: E. coli UFR32 (TEM-1, VEB-1, OXA-10); experiment: as above; type: cell-based; conditions: strain UFR32 (E. coli)
Protocol: as §1

[18] = tested on: E. coli UFR52 (TEM-1, SHV-12, IMP-8); experiment: as above; type: cell-based; conditions: strain UFR52 (E. coli)
Protocol: as §1

[19] = tested on: E. coli UFR61O (TEM-1, KPC-2); experiment: as above; type: cell-based
Protocol: as §1

[20] = tested on: K. pneumoniae UFR24 (TEM-1, SHV-2, SHV-11, OXA-1, OXA-48, OXA-47); experiment: as above; type: cell-based; conditions: strain UFR24 (K. pneumoniae)
Protocol: as §1

[21] = tested on: P. aeruginosa UFR47 (VIM-1); experiment: as above; type: cell-based; conditions: strain UFR47 (P. aeruginosa)
Protocol: as §1

[22] = tested on: P. aeruginosa UFR59 (IMP-29); experiment: as above; type: cell-based; conditions: strain UFR59 (P. aeruginosa)
Protocol: as §1

[23] = strain BAA-1898 (K. pneumoniae)
[24] = strain CIP105250 (P. aeruginosa)
[25] = strain CIP107051 (P. aeruginosa)
[26] = 18 h, strain 131119 (E. coli), read-out: MIC compounds of the invention alone
[27] = 18 h, strain RGN238 (E. coli), read-out: MIC compounds of the invention alone
[28] = 18 h, strain 6299 (K. pneumoniae), read-out: MIC compounds of the invention alone
[29] = BAA1898, strain BAA-1898 (K. pneumoniae), read-out: MIC compounds of the invention alone
[30] = 18 h, strain CIP105250 (P. aeruginosa), read-out: MIC compounds of the invention alone
[31] = 18 h, strain CIP107051 (P. aeruginosa), read-out: MIC compounds of the invention alone
[32] = Escherichia coli, 18 h, read-out: MIC compounds of the invention alone
[33] = MIC of ceftazidime with compound fixed at 4 μg/mL
[34] = Pseudomonas aeruginosa, 18 h, read-out: MIC compounds of the invention alone

T1 sequence (P62593 24-286 limits assumed): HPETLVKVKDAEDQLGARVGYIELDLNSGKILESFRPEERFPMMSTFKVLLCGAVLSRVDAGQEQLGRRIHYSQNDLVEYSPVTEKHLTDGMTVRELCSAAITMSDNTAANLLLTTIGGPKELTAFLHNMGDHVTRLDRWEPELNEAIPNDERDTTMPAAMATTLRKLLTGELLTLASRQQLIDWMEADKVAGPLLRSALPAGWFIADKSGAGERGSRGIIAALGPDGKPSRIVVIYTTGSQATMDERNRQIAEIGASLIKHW

COC[C@H]1C=C(c2cnco2)[C@@H]2CN1C(=O)N2OS(=O)(=O)[O-].[Na+] (relative stereo) [Example 4]
MIC, combination of CAZ and compounds of the invention [1]: 64 µg/mL | MIC compounds of the invention alone [1]: >32 µg/mL | MIC compounds of the invention alone ([2]; strain 131119 (E. coli)): >32 µg/mL | MIC compounds of the invention alone (E. coli RGN238 (OXA-1); strain RGN238 (E. coli)): >32 µg/mL | MIC, combination of CAZ and compounds of the invention ([3]; strain 6299 (K. pneumoniae)): 128 µg/mL | MIC compounds of the invention alone ([3]; strain 6299 (K. pneumoniae)): >32 µg/mL | MIC, combination of CAZ and compounds of the invention [4, 23]: 64 µg/mL | MIC compounds of the invention alone [4, 23]: >32 µg/mL | MIC, combination of CAZ and compounds of the invention [5, 24]: 128 µg/mL | MIC compounds of the invention alone [5, 24]: >32 µg/mL | MIC, combination of CAZ and compounds of the invention [6, 25]: 64 µg/mL | MIC compounds of the invention alone [6, 25]: >32 µg/mL | MIC, combination of CAZ and compounds of the invention ([7]; MIC of ceftazidime with compound fixed at 4 μg/mL, strain 190317 (E. coli)): 4 µg/mL | MIC compounds of the invention alone ([7]; strain 190317 (E. coli)): >32 µg/mL

N=C(N)NC[C@@H]1C(c2nccs2)=C[C@@H]2CN1C(=O)N2OS(=O)(=O)O [Example 7, [(2S,5R)-2-(guanidinomethyl)-7-oxo-3-thiazol-2-yl-1,6-diazabicyclo[3.2.1]oct-3-en-6-yl] hydrogen sulfate]
MIC [1]: 0.031 µg/mL | MIC, combination of CAZ and compounds of the invention [1]: <0.125 µg/mL | MIC [2, 26]: 0.031 µg/mL | MIC (E. coli RGN238 (OXA-1); [27]): 16 µg/mL | MIC [3, 28]: > 32 µg/mL | MIC, combination of CAZ and compounds of the invention ([3]; strain 6299 (K. pneumoniae)): 2 µg/mL | MIC [4, 29]: > 32 µg/mL | MIC, combination of CAZ and compounds of the invention [4, 23]: ≤0.125 µg/mL | MIC, combination of CAZ and compounds of the invention [5, 24]: 32 µg/mL | MIC [5, 30]: 32 µg/mL | MIC, combination of CAZ and compounds of the invention [6, 25]: 1 µg/mL | MIC [6, 31]: 8 µg/mL | MIC [7, 32]: 0.063 µg/mL

CC(C)(O/N=C(\C(=O)N[C@@H]1C(=O)N2C(C(=O)[O-])=C(C[n+]3ccccc3)CS[C@H]12)c1csc(N)n1)C(=O)O [CAZ, ceftazidime, reference compound]
MIC ([2]; read-out: MIC of CAZ): 0.5 µg/mL | MIC (E. coli RGN238 (OXA-1); read-out: MIC of CAZ): 0.5 µg/mL | MIC ([8]; read-out: MIC of CAZ): 64 µg/mL | MIC ([3]; read-out: MIC of CAZ): 256 µg/mL | MIC ([4]; BAA1898, read-out: MIC of CAZ): 256 µg/mL | MIC ([9]; read-out: MIC of CAZ): 64 µg/mL | MIC ([5]; CIP105250, read-out: MIC of CAZ): 256 µg/mL | MIC ([6]; CIP107051, read-out: MIC of CAZ): 256 µg/mL | MIC ([10]; read-out: MIC of CAZ): 2 µg/mL | MIC ([11]; read-out: MIC of CAZ): 256 µg/mL | MIC [12]: 64 µg/mL | MIC [13]: 32 µg/mL

NC[C@@H]1C=C(c2cnco2)[C@@H]2CN1C(=O)N2OS(=O)(=O)O (relative stereo) [Example 1, Sodium and 2,2,2-trifluoroacetate [trans-2-(azaniumylmethyl)-4-oxazol-5-yl-7-oxo-1,6-diazabicyclo[3.2.1]oct-3-en-6-yl] sulfate]
pIC50 (TEM-1): 8.49 | MIC ([14]; 18 h, read-out: MIC compounds of the invention alone): > 32 µg/mL | MIC, combination of CAZ and compounds of the invention [14, 33]: 0.5 µg/mL | MIC [1]: 0.031 µg/mL | MIC, combination of CAZ and compounds of the invention [1]: <0.25 µg/mL | MIC ([15]; Enterobacter cloacae, 18 h, read-out: MIC compounds of the invention alone): ≤ 0.016 µg/mL | MIC, combination of CAZ and compounds of the invention [15, 33]: <0.25 µg/mL | MIC [2, 26]: 32 µg/mL | MIC, combination of CAZ and compounds of the invention ([2]; MIC of ceftazidime with compound fixed at 4 μg/mL, strain 131119 (E. coli)): <0.25 µg/mL | MIC (E. coli RGN238 (OXA-1); [27]): > 32 µg/mL | MIC, combination of CAZ and compounds of the invention (E. coli RGN238 (OXA-1); MIC of ceftazidime with compound fixed at 4 μg/mL, strain RGN238 (E. coli)): ≤0.125 µg/mL | MIC [16, 32]: 0.031 µg/mL | MIC, combination of CAZ and compounds of the invention [16, 33]: <0.25 µg/mL | MIC [17, 32]: 0.031 µg/mL | MIC, combination of CAZ and compounds of the invention [17, 33]: <0.25 µg/mL | MIC [18, 32]: 2 µg/mL | MIC, combination of CAZ and compounds of the invention [18, 33]: <0.25 µg/mL | MIC ([19]; Escherichia coli, strain UFR61O (E. coli), read-out: MIC compounds of the invention alone): 0.031 µg/mL | MIC, combination of CAZ and compounds of the invention ([19]; MIC of ceftazidime with compound fixed at 4 μg/mL, strain UFR610 (E. coli)): <0.25 µg/mL | MIC ([8]; 18 h, strain UFR74 (E. coli), read-out: MIC compounds of the invention alone): > 32 µg/mL | MIC, combination of CAZ and compounds of the invention ([8]; MIC of ceftazidime with compound fixed at 4 μg/mL, strain UFR74 (E. coli)): 4 µg/mL | MIC [3, 28]: > 32 µg/mL | MIC, combination of CAZ and compounds of the invention ([3]; strain 6299 (K. pneumoniae)): 0.5 µg/mL | MIC [4, 29]: > 32 µg/mL | MIC, combination of CAZ and compounds of the invention [4, 23]: 0.5 µg/mL | MIC ([20]; Klebsiella pneumoniae, 18 h, read-out: MIC compounds of the invention alone): > 32 µg/mL | MIC, combination of CAZ and compounds of the invention [20, 33]: 4 µg/mL | MIC ([9]; 18 h, strain UFR77 (K. pneumoniae), read-out: MIC compounds of the invention alone): > 32 µg/mL | MIC, combination of CAZ and compounds of the invention ([9]; MIC of ceftazidime with compound fixed at 4 μg/mL, strain UFR77 (K. pneumoniae)): 2 µg/mL | MIC, combination of CAZ and compounds of the invention [5, 24]: ≤0.125 µg/mL | MIC [5, 30]: > 32 µg/mL | MIC, combination of CAZ and compounds of the invention [6, 25]: <0.25 µg/mL | MIC [6, 31]: 2 µg/mL | MIC, combination of CAZ and compounds of the invention ([10]; MIC of ceftazidime with compound fixed at 4 μg/mL, strain UFR35 (P. aeruginosa)): <0.25 µg/mL | MIC ([10]; 18 h, strain UFR35 (P. aeruginosa), read-out: MIC compounds of the invention alone): 1 µg/mL | MIC, combination of CAZ and compounds of the invention [21, 33]: <0.25 µg/mL | MIC [21, 34]: 2 µg/mL | MIC, combination of CAZ and compounds of the invention ([11]; MIC of ceftazidime with compound fixed at 4 μg/mL, strain UFR48 (P. aeruginosa)): <0.25 µg/mL | MIC ([11]; 18 h, strain UFR48 (P. aeruginosa), read-out: MIC compounds of the invention alone): 4 µg/mL | MIC, combination of CAZ and compounds of the invention [22, 33]: <0.25 µg/mL | MIC [22, 34]: 8 µg/mL
